Measured values published in the supplement of paper PMC5752671.
Structures can show the parent of a compound that is named as a salt.

Columns and labels:
Assay in all cases: area under dose-response curve (cell viability) (AUC (arbitrary, % viability x log concentration)); higher = less sensitive (more viable)
Conditions in all cases: 4 days
[1] = test system: KASUMI1
Procedure, shortened: (§1)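 Fourteen leukemia cell lines were plated on extracellular-matrix-coated 384-well plates. Drugs were added robotically the next day at eight concentrations spanning 4–5 logs within 10^–12–10^–4 M, tailored per drug, in duplicate. Viability was read with CellTiter-Glo after 4 days. The value is the area under a four-parameter sigmoid fitted to the duplicate-averaged dose-response.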

[2] = test system: KG1
Procedure, shortened: as §1

[3] = test system: MOLM/16
Procedure, shortened: as §1

[4] = test system: MV4.11
Procedure, shortened: as §1

[5] = test system: NB4
Procedure, shortened: as §1

[6] = test system: OCI-AML2
Procedure, shortened: as §1

[7] = test system: OCI-AML3
Procedure, shortened: as §1

[8] = test system: PL-21
Procedure, shortened: as §1

[9] = test system: SKM1
Procedure, shortened: as §1

[10] = test system: THP-1
Procedure, shortened: as §1

| SMILES | area under dose-response curve [1] | area under dose-response curve [2] | area under dose-response curve [3] | area under dose-response curve [4] | area under dose-response curve [5] | area under dose-response curve [6] | area under dose-response curve [7] | area under dose-response curve [8] | area under dose-response curve [9] | area under dose-response curve [10] |
| --- | --- | --- | --- | --- | --- | --- | --- | --- | --- | --- |
| CN1CC[C@H](c2c(O)cc(O)c3c(=O)cc(-c4ccccc4Cl)oc23)[C@H](O)C1 [Flavopiridol] | 476 | 300 | 369 | 408 | 436 | 372 | 420 | 355 | 286 | 442 |
| Nc1nc(F)nc2c1ncn2[C@@H]1O[C@H](CO)[C@@H](O)[C@@H]1O [Fludarabine] | 655 | 714 | 625 | 594 | 648 | 564 | 632 | 573 | 624 | 676 |
| c1cc(-c2sc(-c3ccncc3)c(-c3ccncc3)c2-c2ccncc2)ccn1 [GANT58] | 704 | 691 | 611 | 671 | 624 | 603 | 645 | 604 | 650 | 735 |
| CS(=O)(=O)c1ccc(C(=O)Nc2ccc(Cl)c(-c3ccccn3)c2)c(Cl)c1 [GDC-0449] | 730 | 754 | 631 | 680 | 632 | 640 | 683 | 619 | 670 | 754 |
| CS(=O)(=O)N1CCN(Cc2cc3nc(-c4cccc5[nH]ncc45)nc(N4CCOCC4)c3s2)CC1 [GDC-0941] | 402 | 591 | 363 | 495 | 574 | 505 | 521 | 420 | 469 | 546 |
| COc1cc2ncnc(Nc3ccc(F)c(Cl)c3)c2cc1OCCCN1CCOCC1 [Gefitinib] | 707 | 726 | 584 | 585 | 631 | 628 | 596 | 575 | 637 | 679 |
| Nc1ccn([C@@H]2O[C@H](CO)[C@@H](O)C2(F)F)c(=O)n1 [Gemcitabine HCl] | 119 | 66.3 | 15.7 | 2 | 1.3 | 3.7 | 210 | 201 | 32.7 | 17.2 |
| NC(=O)NO [Hydroxyurea] | 672 | 675 | 617 | 602 | 647 | 583 | 612 | 584 | 624 | 675 |
| CCc1c2c(nc3ccc(OC(=O)N4CCC(N5CCCCC5)CC4)cc13)-c1cc3c(c(=O)n1C2)COC(=O)[C@]3(O)CC [Irinotecan HCl] | 618 | 627 | 516 | 499 | 563 | 514 | 569 | 564 | 574 | 627 |
| CS(=O)(=O)CCNCc1ccc(-c2ccc3ncnc(Nc4ccc(OCc5cccc(F)c5)c(Cl)c4)c3c2)o1 [Lapatinib] | 703 | 765 | 611 | 630 | 606 | 585 | 630 | 579 | 610 | 706 |
| Nc1cccc2c1CN(C1CCC(=O)NC1=O)C2=O (stereo not given) [Lenalidomide] | 739 | 754 | 514 | 671 | 647 | 632 | 657 | 621 | 613 | 719 |
| O=NN(CCCl)C(=O)NC1CCCCC1 [Lomustine] | 711 | 733 | 611 | 622 | 635 | 558 | 672 | 604 | 637 | 720 |
| CC(C)C[C@@H](C=O)NC(=O)[C@H](CC(C)C)NC(=O)[C@H](CC(C)C)NC(=O)OCc1ccccc1 [MG132] | 484 | 543 | 428 | 402 | 475 | 352 | 452 | 488 | 421 | 522 |
| NC1(c2ccc(-c3nc4ccn5c(=O)[nH]nc5c4cc3-c3ccccc3)cc2)CCC1 [MK2206] | 449 | 649 | 418 | 515 | 521 | 497 | 523 | 427 | 506 | 530 |
| COc1cc(Nc2ncc3c(n2)-c2ccc(Cl)cc2C(c2c(F)cccc2OC)=NC3)ccc1C(=O)O [MLN8237] | 452 | 441 | 181 | 279 | 304 | 373 | 355 | 406 | 384 | 195 |
| Nc1ccccc1NC(=O)c1ccc(CNC(=O)OCc2cccnc2)cc1 [MS-275] | 466 | 592 | 405 | 436 | 408 | 408 | 436 | 450 | 390 | 558 |

| SMILES | area under dose-response curve [1] | area under dose-response curve [2] | area under dose-response curve [3] | area under dose-response curve [4] | area under dose-response curve [5] | area under dose-response curve [6] | area under dose-response curve [7] | area under dose-response curve [8] | area under dose-response curve [9] | area under dose-response curve [10] |
| --- | --- | --- | --- | --- | --- | --- | --- | --- | --- | --- |
| Cc1ccc(NC(=O)c2ccc(CN3CCN(C)CC3)cc2)cc1Nc1nc(-c2cccnc2)cs1 [Masitinib] | 555 | 693 | 623 | 596 | 633 | 614 | 666 | 599 | 639 | 659 |
| N[C@@H](Cc1ccc(N(CCCl)CCCl)cc1)C(=O)O [Melphalan] | 610 | 644 | 542 | 423 | 515 | 423 | 527 | 569 | 561 | 628 |
| S=c1[nH]cnc2nc[nH]c12 [Mercaptopurine] | 693 | 694 | 635 | 632 | 637 | 571 | 646 | 577 | 645 | 663 |
| CN(Cc1cnc2nc(N)nc(N)c2n1)c1ccc(C(=O)N[C@@H](CCC(=O)O)C(=O)O)cc1 [Methotrexate] | 708 | 762 | 573 | 49.4 | 21.3 | 49.3 | 189 | 503 | 597 | 366 |
| CO[C@@]12[C@H](COC(N)=O)C3=C(C(=O)C(C)=C(N)C3=O)N1C[C@@H]1N[C@@H]12 [Mitomycin C] | 453 | 471 | 341 | 181 | 309 | 203 | 341 | 486 | 387 | 384 |
| O=C1c2c(O)ccc(O)c2C(=O)c2c(NCCNCCO)ccc(NCCNCCO)c21 [Mitoxantrone] | 285 | 344 | 237 | 153 | 214 | 187 | 288 | 332 | 249 | 311 |
| FC(F)(F)c1ccc(/C=C/c2nc(COc3ccc(CCCCn4ccnn4)cc3)co2)cc1 [Mubritinib] | 534 | 561 | 402 | 560 | 496 | 547 | 529 | 515 | 588 | 514 |
| CCNC(=O)c1noc(-c2cc(C(C)C)c(O)cc2O)c1-c1ccc(CN2CCOCC2)cc1 [NVP-AUY-922] | 213 | 331 | 147 | 144 | 229 | 178 | 262 | 251 | 208 | 359 |
| Cc1c(C(=O)Nc2ccc(N3C[C@@H](C)O[C@@H](C)C3)nc2)cccc1-c1ccc(OC(F)(F)F)cc1 [NVP-LDE-225] | 658 | 675 | 609 | 656 | 582 | 642 | 640 | 614 | 645 | 660 |
| COc1cc(N2CCC(N3CCN(C)CC3)CC2)ccc1Nc1ncc(Cl)c(Nc2ccccc2S(=O)(=O)C(C)C)n1 [NVP-TAE-684] | 560 | 536 | 551 | 548 | 591 | 541 | 603 | 511 | 576 | 644 |
| Cc1cn(-c2cc(NC(=O)c3ccc(C)c(Nc4nccc(-c5cccnc5)n4)c3)cc(C(F)(F)F)c2)cn1 [Nilotinib] | 458 | 624 | 599 | 601 | 626 | 633 | 625 | 550 | 627 | 605 |
| COc1cccc2cc(-c3nc([C@H]4CC[C@H](C(=O)O)CC4)n4ncnc(N)c34)[nH]c12 [OSI-027] | 521 | 383 | 429 | 499 | 576 | 506 | 509 | 491 | 548 | 566 |
| C[C@]1(O)C[C@@H](c2nc(-c3ccc4ccc(-c5ccccc5)nc4c3)c3c(N)nccn32)C1 [OSI-906] | 503 | 594 | 531 | 641 | 561 | 534 | 603 | 478 | 533 | 658 |
| COC1=CC(c2cc3ccccc3[nH]2)=N/C1=C\c1[nH]c(C)cc1C [Obatoclax] | 321 | 366 | 395 | 390 | 374 | 324 | 373 | 345 | 435 | 308 |
| O=C(c1cc(Cc2n[nH]c(=O)c3ccccc23)ccc1F)N1CCN(C(=O)C2CC2)CC1 [Olaparib] | 639 | 646 | 575 | 500 | 573 | 509 | 609 | 569 | 592 | 656 |
| C[C@@H]1C[C@H]2[C@@H]3CCC4=CC(=O)C=C[C@]4(C)[C@@]3(F)[C@@H](O)C[C@]2(C)[C@@]1(O)C(=O)CO [dexamethasone] | 538 | 689 | 715 | 767 | 610 | 653 | 710 | 598 | 615 | 795 |
